Assay results from patent US8968997B2, “Benzoxazole-based fluorescent metal ion indicators” (Life Technologies Corporation, priority 2008, dated 2015).
pKd: −log10 of the molar value. Values joined by “and” are separate entries in the source; they are usually repeats but may differ in a detail not shown here. Equal entries are not always repeated.

How the values were obtained:
[1] = Spectrofluorimetry studies: calcium binding constant (Kd) of ion indicators; details: 30 mM MOPS, 100 mM KCl buffers; calculated from 8-10 data points; read-out: Kd(Ca^2+)
Experimental: (§1) The excitation and emission spectra of solutions of various ion indicators (concentration 1-2 μM) were recorded in 30 mM MOPS and 100 mM KCl buffers containing 0 to 200 nM free calcium ion. The binding constant values were calculated based on 8-10 data points taken in buffers covering the concentration range appropriate for the Kd value. Spectral curves for derivatives of Compound 7 (with different R substitutents) were recorded using a standard spectrofluorimeter.

[2] = Spectrofluorimetry studies: excitation and emission spectra and ratiometric response to metal ion binding; format: physicochemical; details: for λabs (UV), (nm): indicator 1-2 μM in 30 mM MOPS, 100 mM KCl buffer; for λemiss (nm) / λexcit (nm): position of maxima for two ratiometric peaks, 30 mM MOPS, 100 mM KCl, 0 to 200 nM free calcium ion
Experimental: as §1
FIGS. 1-3 show excitation and emission spectra for several of the tested compounds. […]

[3] = test system: Jurkat T-cell leukemia cultured cells; experiment: Flow cytometry studies: intracellular calcium response of dye-loaded cells after stimulant; format: cell-based; details: Jurkat cells loaded with 4 μM cell-permeant compound, 355 nm excitation
Experimental: Jurkat T-cell leukemia cultured cells were washed once with Hanks Buffered Salt Solution (HBSS) containing calcium and resuspended in HBSS at a concentration of 2×10^6/ml. A one (1) mL cell suspension was added to a 12×75 mm test tube. A cell-permeant compound (7e or 7f) was added to the cell suspension at a final concentration of 4 μM. The cell/dye mixture was mixed and placed at 37° C. protected from light for 30 minutes. The sample then was washed once with HBSS pre-warmed to 37° C. and the cell pellet was resuspended in one mL warmed HBSS. The sample rested for 15 minutes at 37° C. protected from light. […] Analysis of the data was performed using a dual parameter plot of time versus fluorescence ratio of the emissions as measured by 495/20:424/44 ratio. […] A plot of time versus fluorescence ratio for cells that have been loaded with the tested compound was collected upon addition of ionomycin or CD3 stimulant after baseline measurement. […] For Compound 7e, the ratio of the mean fluorescence as measured yielded an increase of 3.4× with ionomycin stimulation (A), an expected response which was maintained over time. The ratio of the mean fluorescence as measured gave an increase of 2.8× with CD3 stimulation (B), an expected response which decreased slightly over time. […]

| pKd [1] | λabs (UV), (nm) [2] | λemiss (nm) [2] | λexcit (nm) [2] | Structure (SMILES) | increase of ratio of mean fluorescence (495/20:424/44 emission ratio) after stimulant vs baseline ([3]; 1 μM ionomycin stimulation) | increase of ratio of mean fluorescence (495/20:424/44 emission ratio) after stimulant vs baseline ([3]; CD3 stimulation) |
| --- | --- | --- | --- | --- | --- | --- |
| 6.99 | 363 nm | 417-475 nm | 363 nm | COc1cc(N(C)C)ccc1-c1nc2cc(OCCOc3cc(C)ccc3N(CC(=O)O)CC(=O)O)c(N(CC(=O)O)CC(=O)O)cc2o1 [Compound 7f] | 3.2 × | 2.8 × |
| 6.84 | 375 nm | 435-510 nm | 375 nm | Cc1ccc(N(CC(=O)O)CC(=O)O)c(OCCOc2cc3nc(-c4cc5c6c(c4)CCCN6CCC5)oc3cc2N(CC(=O)O)CC(=O)O)c1 [Compound 7h] |  |  |
| 6.80 | 330 nm and 440 (non- nm | 490 nm | 324-364 nm | Cc1ccc(N(CC(=O)O)CC(=O)O)c(OCCOc2cc3nc(-c4ccc5nonc5c4)oc3cc2N(CC(=O)O)CC(=O)O)c1 [Compound 7l] |  |  |
| 6.89 | 373 nm | 496 nm | 373 nm | Cc1ccc(N(CC(=O)O)CC(=O)O)c(OCCOc2cc3nc(-c4ccc5cc(N(C)C)ccc5c4)oc3cc2N(CC(=O)O)CC(=O)O)c1 [Compound 7r] |  |  |

Second part, the compound before the results:

| Structure (SMILES) | pKd [1] | λabs (UV), (nm) [2] | λemiss (nm) [2] | λexcit (nm) [2] | increase of ratio of mean fluorescence (495/20:424/44 emission ratio) after stimulant vs baseline ([3]; 1 μM ionomycin stimulation) | increase of ratio of mean fluorescence (495/20:424/44 emission ratio) after stimulant vs baseline ([3]; CD3 stimulation) |
| --- | --- | --- | --- | --- | --- | --- |
| Cc1ccc(N(CC(=O)O)CC(=O)O)c(OCCOc2cc3nc(-c4ccc(N(C)C)cc4O)oc3cc2N(CC(=O)O)CC(=O)O)c1 [Compound 7g] | 7.07 | 363 nm | 417-496 nm | 363 nm |  |  |
| Cc1ccc(N(CC(=O)O)CC(=O)O)c(OCCOc2cc3nc(-c4nc5ccccc5s4)oc3cc2N(CC(=O)O)CC(=O)O)c1 [Compound 7i] | 6.51 | 364 nm | 569 nm | 361-422 nm |  |  |
| Cc1ccc(N(CC(=O)O)CC(=O)O)c(OCCOc2cc3nc(-c4cccc(=O)[nH]4)oc3cc2N(CC(=O)O)CC(=O)O)c1 [Compound 7j] | 6.84 | 366 nm | 567 nm | 349-392 nm |  |  |
| Cc1ccc(N(CC(=O)O)CC(=O)O)c(OCCOc2cc3nc(-c4cc[n+]([O-])cc4)oc3cc2N(CC(=O)O)CC(=O)O)c1 [Compound 7k] | 6.52 | 357 nm | 612 nm | 356-425 nm |  |  |
| Cc1ccc(N(CC(=O)O)CC(=O)O)c(OCCOc2cc3nc(/C=C/c4ccc(N(C)C)c5ccccc45)oc3cc2N(CC(=O)O)CC(=O)O)c1 [Compound 7p] | 6.54 | 392 nm | 586 nm | 392 nm |  |  |
| Cc1ccc(N(CC(=O)O)CC(=O)O)c(OCCOc2cc3nc(/C=C/c4cc5c6c(c4)CCCN6CCC5)oc3cc2N(CC(=O)O)CC(=O)O)c1 [Compound 7q] | 7.10 | 413 nm | 548 nm | 413 nm |  |  |
| Cc1ccc(N(CC(=O)O)CC(=O)O)c(OCCOc2cc3nc(-c4cc5cc6c7c(c5oc4=O)CCCN7CCC6)oc3cc2N(CC(=O)O)CC(=O)O)c1 [Compound 7t] | 6.81 | 472 nm | 520 nm | 472 nm |  |  |
